Assay type in all cases: biochemical
For experiment [1], the target named is T1, PDGF-R (beta subunit kinase domain) (Homo sapiens, UniProt P09619).
T1 construct: nucleotides 1874–3507 of the human PDGF-R beta subunit kinase domain; polyhistidine (N)
Kind of experiment: Kinase selectivity assay PDGF-R. As for the experimental part: (§1) Assays to test compound inhibition of other kinases were preformed using methods that measure the amount of phosphorylation of a biotinylated peptide substrate. Biotinylated peptide substrates were selected from the literature as appropriate for the enzyme being evaluated. […] Assay conditions vary slightly for each protein kinase, for example, insulin receptor kinase requires 10 mM MnCl2 for activity and Calmodulin-dependent protein kinase requires calmodulin and 2 mM CaCl2. The reaction mixture was dispensed into the wells of a streptavidin coated Flashplate and 1 μL test compound in 100% DMSO was added to a 100 μL reaction volume resulting in a final concentration of 1% DMSO in the reaction. Enzyme was diluted in 50 mM Tris-HCl pH=8.0, 0.1% BSA and added to each well. The reaction was incubated for one hour at 30° C. in the presence of a test compound. After one hour the reaction mix was aspirated from the plate and the plate was washed with PBS containing 100 mM EDTA. The plate was read on a scintillation counter to determine ^33P-γ-ATP incorporated into the immobilized peptide substrate. Test compounds were assayed in duplicate at 8 concentrations (100 μM, 10 μM, 1 μM, 100 nM, 10 nM, 1 nM, 100 pM, 10 pM). A maximum and minimum signal for the assay was determined on each plate. […] Known inhibitor compounds appropriate for the kinase being assayed were also included on each plate. […]

A further experiment has as its target CDK4 (Homo sapiens, UniProt P11802). Description: Kinase selectivity assay CDK4. The procedure: Assays to test compound inhibition of other kinases were preformed using methods that measure the amount of phosphorylation of a biotinylated peptide substrate. Biotinylated peptide substrates were selected from the literature as appropriate for the enzyme being evaluated. The general procedure used to assay for kinase activity is as follows: a kinase reaction mix was prepared in 50 mM Tris-HCl pH=8, 10 mM MgCl2, 0.1 mM Na3VO4, 1 mM DTT, 10 μM ATP, 0.25–1 μM biotinylated peptide substrate, 0.2–0.8 μCuries per well ^33P-γ-ATP (2000–3000 Ci/mmol). Assay conditions vary slightly for each protein kinase, for example, insulin receptor kinase requires 10 mM MnCl2 for activity and Calmodulin-dependent protein kinase requires calmodulin and 2 mM CaCl2. The reaction mixture was dispensed into the wells of a streptavidin coated Flashplate and 1 μL test compound in 100% DMSO was added to a 100 μL reaction volume resulting in a final concentration of 1% DMSO in the reaction. Enzyme was diluted in 50 mM Tris-HCl pH=8.0, 0.1% BSA and added to each well. The reaction was incubated for one hour at 30° C. in the presence of a test compound. […] The plate was read on a scintillation counter to determine ^33P-γ-ATP incorporated into the immobilized peptide substrate. […] A maximum and minimum signal for the assay was determined on each plate. […]

The target in experiment [2] is T2, Casein Kinase 1 (CK1 delta isoform) (Rattus norvegicus, UniProt Q06486).
T2 construct: a truncation at amino acid 318 of the C-terminal portion of the rat CK1 delta isoform; purchased New England Biolabs 6030; host or cells: E. coli
T2 sequence (Q06486 1-317): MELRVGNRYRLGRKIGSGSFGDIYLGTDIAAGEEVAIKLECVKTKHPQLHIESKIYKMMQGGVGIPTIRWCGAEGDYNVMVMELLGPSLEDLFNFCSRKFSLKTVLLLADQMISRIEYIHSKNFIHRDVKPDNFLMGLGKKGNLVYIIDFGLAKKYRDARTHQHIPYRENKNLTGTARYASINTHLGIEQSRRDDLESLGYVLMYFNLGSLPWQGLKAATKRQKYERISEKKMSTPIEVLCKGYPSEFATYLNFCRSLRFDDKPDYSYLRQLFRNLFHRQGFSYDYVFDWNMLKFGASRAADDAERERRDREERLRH
Kind of experiment: Kinase selectivity assay Casein Kinase 1. As for the experimental part: as §1

A word on the pIC50: it is the IC50 on a negative log10 scale, so that one unit is a factor of ten. Higher therefore signals a low IC50.

pIC50: −log10 of the molar value.

Chain of CDK4 (P11802 whole entry, species assumed): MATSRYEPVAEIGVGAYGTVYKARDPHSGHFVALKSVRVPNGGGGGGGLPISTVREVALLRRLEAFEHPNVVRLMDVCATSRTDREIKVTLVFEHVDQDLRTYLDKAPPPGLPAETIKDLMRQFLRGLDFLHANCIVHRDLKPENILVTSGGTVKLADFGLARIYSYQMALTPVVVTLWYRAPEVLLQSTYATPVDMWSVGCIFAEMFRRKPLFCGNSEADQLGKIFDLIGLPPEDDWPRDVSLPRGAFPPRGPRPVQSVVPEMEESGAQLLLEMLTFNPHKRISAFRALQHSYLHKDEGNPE
Chain of CDK4 (P24385 whole entry partner, species assumed): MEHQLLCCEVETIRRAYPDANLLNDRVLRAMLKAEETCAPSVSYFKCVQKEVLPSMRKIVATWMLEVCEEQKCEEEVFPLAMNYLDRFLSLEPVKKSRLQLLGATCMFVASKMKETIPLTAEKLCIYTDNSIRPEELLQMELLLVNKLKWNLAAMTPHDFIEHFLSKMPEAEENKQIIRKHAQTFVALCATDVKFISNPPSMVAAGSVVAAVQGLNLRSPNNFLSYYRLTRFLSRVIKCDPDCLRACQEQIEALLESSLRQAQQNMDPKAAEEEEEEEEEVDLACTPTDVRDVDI
T1 sequence (P09619 554-1106 limits assumed): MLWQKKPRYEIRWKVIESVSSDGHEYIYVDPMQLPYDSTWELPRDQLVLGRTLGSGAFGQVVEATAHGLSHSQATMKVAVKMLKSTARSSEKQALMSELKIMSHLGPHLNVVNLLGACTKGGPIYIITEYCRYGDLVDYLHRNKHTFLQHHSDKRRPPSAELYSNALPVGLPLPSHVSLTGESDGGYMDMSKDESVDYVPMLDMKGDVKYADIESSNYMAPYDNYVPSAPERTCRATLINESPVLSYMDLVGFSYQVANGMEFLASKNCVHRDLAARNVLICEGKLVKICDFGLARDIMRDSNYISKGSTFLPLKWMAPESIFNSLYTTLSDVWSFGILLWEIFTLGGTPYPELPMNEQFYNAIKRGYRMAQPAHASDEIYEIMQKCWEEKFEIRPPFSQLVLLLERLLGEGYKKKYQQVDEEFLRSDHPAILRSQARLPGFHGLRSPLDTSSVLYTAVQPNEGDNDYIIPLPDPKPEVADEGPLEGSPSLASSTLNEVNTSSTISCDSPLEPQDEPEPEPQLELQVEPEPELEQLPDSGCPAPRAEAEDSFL

Consider `OCCCNc1cncc(-c2ncnc(Nc3cccc(Cl)c3)n2)c1` [Compound 1, 3-((5-(4-((3-chlorophenyl)amino)-1,3,5-triazin-2-yl)-3-pyridinyl)amino)-1-propanol], for which the pIC50 is 5.93 in experiment [1], 5.87 against CDK4 and 6.94 in experiment [2].
